Experimental data published in patent US12516062B2, “Agricultural or horticultural insecticide or animal ectoparasite or endoparasite control agent each comprising an imidazopyridazine compound having a substituted cyclopropane-oxadiazole group or a salt thereof as active ingredient, and method for using the insecticide or the control agent” (NIHON NOHYAKU CO., LTD., priority 2019, dated 2026).

Legend:
Format in all cases: in vivo
Plutella xylostella = test: whole plant or invertebrate; details: in Brassica rapa, 144 h, seedlings with laid eggs dipped about 30 seconds, 25° C., 6 days after dip treatment, read-out: insecticidal efficacy (corrected mortality rate), activity level
Haemonchus contortus = test: Larval motility assay on Haemonchus contortus; details: 96 h, L1 stage larvae, 4 days, relative to DMSO only, read-out: percent motility inhibition
Protocol: Larval Motility Assay on Haemonchus contortus
DMSO diluted solutions of various compounds of the present invention were added at the final concentration of 50 ppm to the wells of a 96-well plate containing a predetermined conditioned medium. Twenty L1 stage larvae of H. contortus were introduced into each well of the 96-well plate. The plate was allowed to stand for 4 days, and then larval motility was examined. The percent motility inhibition in the wells of each treatment was calculated relative to the wells of treatment with DMSO only.

Laodelphax striatellus = test: whole plant or invertebrate; details: 192 h, rice seedlings dipped 30 seconds, 3rd-instar larvae, 8 days after inoculation, read-out: insecticidal efficacy (corrected mortality rate), activity level
Dirofilaria immitis = test: Larval motility assay on Dirofilaria immitis; details: 72 h, read-out: percent motility inhibition
Protocol: Larval Motility Assay on Dirofilaria immitis
Five hundred L1 stage larvae of D. immitis were diluted in a predetermined conditioned medium and introduced into each well of a 96-well plate. DMSO diluted solutions of various compounds of the present invention were added at the final concentration of 50 ppm to the wells of the 96-well plate. The plate was allowed to stand for 3 days, and then larval motility was examined. The percent motility inhibition in the wells of each treatment was calculated relative to the wells of treatment with DMSO only.

Rhipicephalus sanguineus = test: Assay for transdermal parasiticidal activity against nymphs of Rhipicephalus sanguineus; details: 48 h, read-out: mortality rate
Excerpt: Assay for Transdermal Parasiticidal Activity Against Nymphs of Rhipicephalus sanguineus
DMSO diluted solutions of various compounds of the present invention were individually diluted to the final concentration of 100 ppm with an acetone/triton mixture and applied to the inside of vented sample bottles. After overnight drying, ten nymphs of R. sanguineus were introduced into each bottle, and the mortality rate was examined two days later. Aberrant adults were regarded as the dead.

`CCS(=O)(=O)c1cc(-c2noc(C3CC3C)n2)cnc1-c1nc2cc(C(F)(F)C(F)(F)F)nnc2n1C` (stereo not drawn) [Compound 1-1] was tested, and the mortality at 500 ppm (Plutella xylostella) was 100%, the inhibition at 50 ppm (Haemonchus contortus) was ≥ 50% and the mortality at 500 ppm (Laodelphax striatellus) was 100%. For the same molecule, the inhibition at 50 ppm (Dirofilaria immitis) was ≥ 50%.
`CCS(=O)(=O)c1cc(-c2noc(C3(C(F)(F)F)CC3)n2)cnc1-c1nc2cc(C(F)(F)C(F)(F)F)nnc2n1C` [Compound 1-2, 3-(5-(ethylsulfonyl)-6-(3-methyl-6-pentafluoroethyl-3[ ]-imidazo[4,5-c]pyridazin-2-yl)pyridin-3-yl)-5-(1-trifluoromethylcyclopropyl)-1,2,4-oxadiazole] was tested, and the mortality at 100 ppm (Rhipicephalus sanguineus) was ≥ 50%, the mortality at 500 ppm (Plutella xylostella) was 100% and the inhibition at 50 ppm (Haemonchus contortus) was ≥ 50%. The mortality at 500 ppm (Laodelphax striatellus) was 100% and the inhibition at 50 ppm (Dirofilaria immitis) was ≥ 50%.
In the case of `CCS(=O)(=O)c1cc(-c2noc(C3(c4ccccc4)CC3)n2)cnc1-c1nc2cc(C(F)(F)C(F)(F)F)nnc2n1C` [Compound 1-3], the mortality at 100 ppm (Rhipicephalus sanguineus) was ≥ 50%, the mortality at 500 ppm (Plutella xylostella) was 100% and the inhibition at 50 ppm (Haemonchus contortus) was ≥ 50%. The mortality at 500 ppm (Laodelphax striatellus) was 100% and the inhibition at 50 ppm (Dirofilaria immitis) was ≥ 50%.
`CCS(=O)(=O)c1cc(-c2noc(C3(C)CC3)n2)cnc1-c1nc2cc(C(F)(F)C(F)(F)F)nnc2n1C` [Compound 1-4] was tested, and the mortality at 500 ppm (Plutella xylostella) was 100%, the inhibition at 50 ppm (Haemonchus contortus) was ≥ 50% and the mortality at 500 ppm (Laodelphax striatellus) was 100%. For the same molecule, the inhibition at 50 ppm (Dirofilaria immitis) was ≥ 50%.
